This is an account of results in ChEMBL document CHEMBL1201862, “PubChem BioAssay data set” (2004).

Test systems include M19-MEL; DLD-1; DMS-273; LXFL 529; HOP-18; RXF 631; XF498; NCI/ADR-RES; BT-549.
What all share (experiment): NCI tumour cell line growth inhibition, 48 h

Structures are written as SMILES.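 Method: 48-hour compound exposure of cells in 96-well plates, five concentrations, linear interpolation of endpoints. GI50 = concentration required for 50% inhibition of growth.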 Activity calls are given as the source filed them. No stated cut-off is given here; in the data, active = GI50 up to about 1.1 µM and inactive = higher.

`COc1c2c(c(O)c3c4c(c(C)cc13)C1OC3(C(OC)OC5CC(C)(O)C(OC6CC(C)(O)C(O)C(C)O6)C(C)O5)OC1C(OC)(O4)C31CO1)C(=O)C(O)CC2OC1CC(C)(O)C(OC(C)=O)C(C)O1` (stereo unspecified): the GI50 was < 0.01 µM (active) in the assay on M19-MEL; 0.01 µM (active) in the assay on DLD-1; < 0.01 µM (active) in the assay with DMS-273; < 0.01 µM (active) with LXFL 529; < 0.01 µM (active) in the assay with HOP-18; < 0.01 µM (active) in the assay with RXF 631. Moreover, the GI50 in the assay with XF498 is < 0.01 µM (active).
On to `CSC(=N)NNC(=O)CCC(=O)Nc1ccccc1C(F)(F)F`, for which the GI50 with M19-MEL, with DLD-1, with DMS-273, with LXFL 529 and in the assay on HOP-18 was > 100 µM (inactive) in each case.
For the molecule `COC(=O)c1c2n(c3ccccc13)C[C@H]1OC(C)(C)O[C@@H]21`, the GI50 in the assay on NCI/ADR-RES and in the assay with BT-549 was > 100 µM (inactive) in each case.
With `CC(=O)OCCCCn1cnc2nc(Nc3ccccc3)nc(Cl)c21`, the GI50 is 42.4 µM (inactive) with NCI/ADR-RES and 26.9 µM (inactive) with BT-549.
As for `CCN(CC)CC(=N)N(CC)c1ccccc1`, the GI50 in the assay with M19-MEL, in the assay with DLD-1, in the assay with LXFL 529, in the assay with HOP-18 and with XF498 was > 100 µM (inactive) throughout.
Turning to `OCCOCn1nc(-c2ccccc2)nc1-c1cnccn1`, the GI50 in the assay on NCI/ADR-RES and in the assay on BT-549 was > 100 µM (inactive) throughout.
Turning to `OC12c3ccccc3C1CCCCCC21OCCCO1` (stereo unspecified), the GI50 in the assay on M19-MEL, with DLD-1, with DMS-273, in the assay on LXFL 529 and in the assay with HOP-18 was > 100 µM (inactive) in each case.
Take `CCN(CC)Cc1ccc2cccnc2c1O`: the figures for the GI50 with NCI/ADR-RES and with BT-549 were 0.358 µM (active) and 37.1 µM (inactive), respectively.
`CCN1CCC(O)(/C=C/c2ccccc2C)C(C(=O)/C=C/c2ccccc2C)C1` (stereo unspecified): the GI50 with NCI/ADR-RES is 3.65 µM (inactive); in the assay with BT-549, 2.84 µM (inactive).
Take `O=Cc1ccc(CCl)cc1`: the GI50 in the assay on M19-MEL was 17.3 µM (inactive); with DLD-1, 16.1 µM (inactive); with DMS-273, 19.8 µM (inactive); in the assay on LXFL 529 it was 16.2 µM (inactive); in the assay with HOP-18, 14.4 µM (inactive); with RXF 631, 3.16 µM (inactive). The GI50 in the assay with XF498 was 20 µM (inactive).
For the molecule `COc1ccc(/C=C/c2cnccn2)cc1OC`, the GI50 in the assay with NCI/ADR-RES and in the assay on BT-549 was > 10 µM (inactive) in each case.
Turning to `NC(=O)c1coc(C2OC(CO)C(O)C2O)n1` (stereo unspecified), the GI50 with M19-MEL, in the assay with DMS-273, in the assay with LXFL 529 and in the assay on HOP-18 was > 100 µM (inactive) in each case.
As to `O=C(NC1C2CC3CC(C2)CC1C3)c1cc(/C=C/c2ccccc2)nc(S)n1` (stereo unspecified), the GI50 with M19-MEL, in the assay on DLD-1, with DMS-273, in the assay on LXFL 529, in the assay with RXF 631 and with XF498 was > 100 µM (inactive) in each case.
As to `O=C(NC1C(O)C(O)C(CO)OC1n1cc(F)c(=O)[nH]c1=O)OCc1ccccc1` (stereo unspecified), the GI50 in the assay on DLD-1, in the assay on DMS-273, in the assay with LXFL 529, in the assay on HOP-18 and in the assay with RXF 631 was > 100 µM (inactive) throughout.
As for `CCN(CC)CCN(C(=O)c1ccc(F)cc1)c1ccccc1N`, the GI50 in the assay on NCI/ADR-RES is > 10 µM (inactive).
Take `COc1cc(C2c3cc4c(cc3OC(N3CCCCC3)C2C)OCO4)cc(OC)c1OC` (stereo unspecified): the GI50 in the assay with NCI/ADR-RES was 3.17 µM (inactive); with BT-549 it was 18.9 µM (inactive).
With `c1ccc2c(c1)SC1Sc3ccccc3[S+]21` (stereo unspecified), the GI50 in the assay on NCI/ADR-RES was 19.9 µM (inactive); in the assay on BT-549, 20.1 µM (inactive).
For the molecule `CC1CCC(O)/C=C/C(=O)OC(C)C(O)/C=C/C(=O)O1` (stereo unspecified), the GI50 in the assay with NCI/ADR-RES is > 100 µM (inactive); in the assay with BT-549, 41.8 µM (inactive).
With `CCC1C(c2ccccc2O)c2cc3c(cc2OC1N1CCOCC1)OCO3` (stereo unspecified), the GI50 in the assay on BT-549 was 15.6 µM (inactive).
For `CCOC(=O)c1c2ccccc2n2c(=O)n(-c3ccccc3)nnc12`, the GI50 was > 58.3 µM (inactive) with NCI/ADR-RES and > 100 µM (inactive) in the assay on BT-549.
In the case of `COC(=O)C1OC(Oc2cc(O)c3c(=O)cc(-c4ccc(O)cc4)oc3c2)C(O)C(O)C1O` (stereo unspecified), the GI50 in the assay with M19-MEL, with DLD-1, with DMS-273, in the assay with HOP-18, in the assay with NCI/ADR-RES and with XF498 was > 100 µM (inactive) each time.
Regarding `O=C(O)C(C(=O)O)P(=S)(S)c1ccccc1` (stereo unspecified), the GI50 with M19-MEL, in the assay with DLD-1, with DMS-273, in the assay on LXFL 529, in the assay on RXF 631 and with NCI/ADR-RES was > 100 µM (inactive) each time. In addition, the GI50 in the assay with BT-549 and in the assay with XF498 was > 100 µM (inactive) in each case.
Consider `Nc1ncnc2c1ncn2C=C=CCO`, for which the GI50 with NCI/ADR-RES and in the assay with BT-549 was > 100 µM (inactive) in each case.
For `COc1ccc(-c2nnc(-c3nsc4ccccc34)o2)cc1`, the GI50 in the assay on M19-MEL is > 100 µM (inactive); in the assay on DMS-273, 71.4 µM (inactive); in the assay on LXFL 529, 54.5 µM (inactive); in the assay on HOP-18 it was 0.571 µM (active).
As for `CCCCC1=C(Br)C(=C(Br)Br)OC1=O`, the GI50 is 2.74 µM (inactive) with M19-MEL; 1.9 µM (inactive) in the assay with DLD-1; 2.74 µM (inactive) with DMS-273; 3.94 µM (inactive) in the assay with HOP-18; 4.14 µM (inactive) in the assay on NCI/ADR-RES; 7.62 µM (inactive) with XF498.
With `Oc1cc(-c2ccccc2)nc2c(S)cccc12`, the GI50 in the assay with NCI/ADR-RES and with BT-549 was > 100 µM (inactive) throughout.
For `Cn1ccc(C(=O)NCCN(CCNC(=O)c2ccn(C)c(=O)c2O)CCNC(=O)c2ccn(C)c(=O)c2O)c(O)c1=O`, the GI50 in the assay with NCI/ADR-RES and in the assay on BT-549 was > 100 µM (inactive) throughout.
